The text below walks through data of PMC5942357 (European Journal of Clinical Pharmacology, 2018).

The nature of data set [1]: Pulmonary function tests (DLCO, FEV1, FVC), change from baseline. The format is in vivo, human.
Method: Participants were under continuous medical supervision during each admission period (up to 48 h post-dose), and safety assessments were made at regular intervals throughout each period and until the end of follow-up. Assessment of safety was conducted by monitoring AEs, clinical laboratory tests (haematology, clinical chemistry and urinalysis), vital signs (including pulse oximetry), 12-lead ECGs, telemetry, physical examinations and pulmonary function tests (forced expiratory volume in 1 s [FEV1], FVC, diffusing capacity of the lung for carbon monoxide).
A further data set concerns αvβ6 integrin. Conditions: cited from earlier work.
For data set [2], the system named is αvβ6 integrin-mediated TGFβ activation. Conditions: in vitro experiments; cited from earlier work.
The conditions of data set [3]: IPF patients treated; cited from earlier work.

For the compound `Cc1cc(C)n(-c2cccc([C@H](CC(=O)O)CN3CC[C@@H](CCc4ccc5c(n4)NCCC5)C3)c2)n1` [GSK3008348], the “DLCO, mean change from baseline to 24 h post dose” value is -0.153 L in data set [1] (1 mcg, N=6); 0.938 L in data set [1] (3 mcg, N=6); 0.113 L in data set [1] (10 mcg, N=6); -0.168 L in data set [1] (30 mcg, N=6); -0.862 L in data set [1] (100 mcg, N=6); 0.562 L in data set [1] (300 mcg, N=6). Further, the “DLCO, mean change from baseline to 24 h post dose” value is listed as -0.293 L in data set [1] (1000 mcg, N=12) and 0.547 L in data set [1] (3000 mcg, N=11). In addition, the “FEV1, mean change from baseline to 24 h post dose” value in data set [1] (1 mcg, N=6) is reported as -0.043 L; in data set [1] (3 mcg, N=6) it was -0.007 L; in data set [1] (10 mcg, N=6), -0.053 L; in data set [1] (30 mcg, N=6) it was 0.085 L; in data set [1] (100 mcg, N=6) it was 0.023 L; in data set [1] (300 mcg, N=6) it was -0.072 L. For the same compound, the “FEV1, mean change from baseline to 24 h post dose” value is given as -0.027 L in data set [1] (1000 mcg, N=12) and -0.025 L in data set [1] (3000 mcg, N=11). In addition, the “FVC, mean change from baseline to 24 h post dose” value is -0.06 L in data set [1] (1 mcg, N=6); 0.125 L in data set [1] (3 mcg, N=6); -0.105 L in data set [1] (10 mcg, N=6); 0.033 L in data set [1] (30 mcg, N=6); 0.12 L in data set [1] (100 mcg, N=6); -0.078 L in data set [1] (300 mcg, N=6). In addition, the “FVC, mean change from baseline to 24 h post dose” value in data set [1] (1000 mcg, N=12) is -0.014 L; in data set [1] (3000 mcg, N=11), -0.094 L. Besides, the “Individual change from baseline in FEV1 and FVC over time between treatment groups” value in data set [1] (all dose levels) is “did not show clinically significant differences”. In the data set with αvβ6 integrin, the “Binding affinity for the αvβ6 integrin” value is given as “high affinity”.

As for `COC(=O)c1ccc2c(c1)NC(=O)/C2=C(\Nc1ccc(N(C)C(=O)CN2CCN(C)CC2)cc1)c1ccccc1` [nintedanib], the “Effects on αvβ6 integrin-mediated TGFβ activation” value in data set [2] is reported as “limited effects”. Also, in data set [3], the “Discontinuation due to adverse events (AEs), patients” value was around 20%.

As for `Cc1ccc(=O)n(-c2ccccc2)c1` [pirfenidone], in data set [2], the “Effects on αvβ6 integrin-mediated TGFβ activation” value is recorded as “limited effects”. Also, in data set [3], the “Discontinuation due to adverse events (AEs), patients” value was “approximately 30%”.
